We go through 18 compounds from patent publication US9216968B2, “Heterocyclic derivative and pharmaceutical drug” (NIPPON SHINYAKU CO., LTD., priority 2011, dated 2015).

As usually defined, the IC50 is the concentration needed to halve the response being measured.

One assay deals with human mPGES-1 (Homo sapiens (Human), UniProt O14684). The assay can be described thus: mPGES-1 inhibiting activity (microsome fractions, PGE2 by HTRF). Format: biochemical. As to conditions: microsomes from CHO-K1 cells transfected with human mPGES-1; PGH2 1 μM, 4° C., 60 seconds; read-out: mPGES-1 Inhibition IC50. A digest of the protocol: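 PGE2 formation read by HTRF after 60 s at 4 °C with 1 μM PGH2 substrate, following 20 min compound preincubation (1% DMSO) with human mPGES-1 microsomes from transfected CHO-K1 cells. Buffer: potassium phosphate, reduced glutathione, pH 7.4; IC50 from activity relative to enzyme-free blank.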

A further assay relates to A549 cells. The assay can be described thus: Inhibition of PGE2 production in A549 cell (IL-1β stimulated). Format: cell-based, human. As to conditions: Homo sapiens, A549, 24 h, IL-1β 5 ng/well, PGE2 in culture medium. The method, boiled down: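 After IL-1β (5 ng/well) stimulation for 24 h at 37 °C, following a 60-min compound pretreatment in RPMI with 3% FBS, medium PGE2 (HTRF) and PGF2α (EIA) from human A549 cells were quantified. 100% activity set as IL-1β-induced minus basal production; IC50 calculated.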

Where a name gives a salt, the structure may show the parent alone.

Chain of human mPGES-1 (O14684 whole entry): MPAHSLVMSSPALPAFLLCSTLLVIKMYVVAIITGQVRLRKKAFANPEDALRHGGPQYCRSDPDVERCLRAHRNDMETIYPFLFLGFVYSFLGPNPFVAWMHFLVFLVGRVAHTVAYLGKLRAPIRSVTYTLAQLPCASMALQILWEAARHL

In the case of `Cc1c(Cl)cccc1NC(=O)c1cc(NC(=O)c2ccc(Cl)cc2Cl)cc2[nH]c(N(C)C)nc12` [Example 184, N-(3-Chloro-2-methylphenyl)-6-{[(2,4-dichlorophenyl)carbonyl]amino}-2-(dimethylamino)-1H-benzimidazole-4-carboxamide hydrochloride], the IC50 at human mPGES-1 stood at 1 nM; in the assay with A549 cells it was 138 nM.

For `COCc1nc2c(C(=O)Nc3ccccc3)cc(NC(=O)c3ccccc3C(F)(F)F)cc2[nH]1` [Example 214, 2-(Methoxymethyl)-N-phenyl-6-({[2-(trifluoromethyl)phenyl]carbonyl}amino)-1H-benzimidazole-4-carboxamide hydrochloride], the IC50 is 5.2 nM at human mPGES-1 and 60.7 nM in the assay with A549 cells.

In the case of `Cc1c(Cl)cccc1NC(=O)c1cc(NC(=O)c2cc(Cl)ccc2Cl)cc2[nH]c(NCC(C)(C)CO)nc12` [Example 189, N-(3-Chloro-2-methylphenyl)-6-{[(2,5-dichlorophenyl)carbonyl]amino}-2-[(3-hydroxy-2,2-dimethylpropyl)amino]-1H-benzimidazole-4-carboxamide hydrochloride], the IC50 on human mPGES-1 is 1.4 nM; in the assay on A549 cells it was 24.5 nM.

Take `Cc1c(Cl)cccc1NC(=O)c1cc(NC(=O)c2c(F)cccc2Cl)cc2[nH]c(N(C)C)nc12` [Example 182, 6-{[(2-Chloro-6-fluorophenyl)carbonyl]amino}-N-(3-chloro-2-methylphenyl)-2-(dimethylamino)-1H-benzimidazole-4-carboxamide hydrochloride]: the IC50 at human mPGES-1 stood at 1.6 nM; in the assay with A549 cells it was 38.4 nM.

For `COCc1nc2c(C(=O)NCC3CCCCCC3)cc(NC(=O)c3ccccc3C(F)(F)F)cc2[nH]1` [Example 231, N-(Cycloheptylmethyl)-2-(methoxymethyl)-6-({[2-(trifluoromethyl)phenyl]carbonyl}amino)-1H-benzimidazole-4-carboxamide hydrochloride], the figures for the IC50 on human mPGES-1 and in the assay on A549 cells were 1.9 nM and 150 nM, respectively.

With `COCc1nc2c(C(=O)Nc3nc4ccccc4o3)cc(NC(=O)c3ccccc3C(F)(F)F)cc2[nH]1` [Example 232, N-(1,3-Benzoxazol-2-yl)-2-(methoxymethyl)-6-({[2-(trifluoromethyl)phenyl]carbonyl}amino)-1H-benzimidazole-4-carboxamide hydrochloride], the IC50 at human mPGES-1 turned out to be 7.7 nM; with A549 cells, 125 nM.

With `Cc1nc2c(C(=O)NCc3ccccc3C(F)(F)F)cc(NC(=O)c3ccccc3C(F)(F)F)cc2o1` [Example 53, 2-Methyl-N-[2-(trifluoromethyl)benzyl]-6-({[2-(trifluoromethyl)phenyl]carbonyl}amino)-1,3-benzoxazole-4-carboxamide], the IC50 at human mPGES-1 amounted to 179 nM; with A549 cells it was 280 nM.

`COCc1nc2c(C(=O)Nc3cccc(Cl)c3C)cc(NC(=O)c3c(Cl)cccc3Br)cc2[nH]1` [Example 102, 6-{[(2-Bromo-6-chlorophenyl)carbonyl]amino}-N-(3-chloro-2-methylphenyl)-2-(methoxymethyl)-1H-benzimidazole-4-carboxamide hydrochloride]: the IC50 on human mPGES-1 came to 1.6 nM; in the assay on A549 cells, 49.1 nM.

For `Cc1c(Cl)cccc1NC(=O)c1cc(NC(=O)c2ccccc2C(F)(F)F)cc2[nH]c(NC3CCCC3)nc12` [Example 141, N-(3-Chloro-2-methylphenyl)-2-(cyclopentylamino)-6-({[2-(trifluoromethyl)phenyl]carbonyl}amino)-1H-benzimidazole-4-carboxamide hydrochloride], the IC50 on human mPGES-1 is 0.4 nM; in the assay on A549 cells it was 36.5 nM.

Take `Cc1c(Cl)cccc1NC(=O)c1cc(NC(=O)c2c(F)cccc2Cl)cc2[nH]c(NCC(C)(C)CO)nc12` [Example 200, 6-{[(2-Chloro-6-fluorophenyl)carbonyl]amino}-N-(3-chloro-2-methylphenyl)-2-[(3-hydroxy-2,2-dimethylpropyl)amino]-1H-benzimidazole-4-carboxamide hydrochloride]: the values for the half-inhibitory concentration (IC50) at human mPGES-1 and in the assay on A549 cells were 4.6 nM and 108 nM, respectively.

Take `CCNc1nc2c(C(=O)Nc3cccc(Cl)c3C)cc(NC(=O)c3ccccc3C(F)(F)F)cc2[nH]1` [Example 139, N-(3-Chloro-2-methylphenyl)-2-(ethylamino)-6-({[2-(trifluoromethyl)phenyl]carbonyl}amino)-1H-benzimidazole-4-carboxamide hydrochloride]: the IC50 on human mPGES-1 was found to be 1.9 nM; in the assay on A549 cells, 72.8 nM.

With `Cc1c(Cl)cccc1NC(=O)c1cc(NC(=O)c2c(F)cccc2Cl)cc2[nH]c(C3CCCC3)nc12` [Example 126, 6-{[(2-Chloro-6-fluorophenyl)carbonyl]amino}-N-(3-chloro-2-methylphenyl)-2-cyclopentyl-1H-benzimidazole-4-carboxamide hydrochloride], the IC50 at human mPGES-1 is 5.6 nM; in the assay on A549 cells it was 13.1 nM.

For the compound `Cc1c(Cl)cccc1NC(=O)c1cc(NC(=O)c2ccccc2C(F)(F)F)cc2[nH]c(NCCN(C(C)C)C(C)C)nc12` [Example 155, N-(3-Chloro-2-methylphenyl)-2-{[2-(dipropan-2-ylamino)ethyl]amino}-6-({[2-(trifluoromethyl)phenyl]carbonyl}amino)-1H-benzimidazole-4-carboxamide hydrochloride], the IC50 on human mPGES-1 was 101 nM; in the assay with A549 cells it was 209 nM.

Turning to `COCC(C)(C)c1nc2c(C(=O)Nc3cccc(Cl)c3C)cc(NC(=O)c3ccccc3C(F)(F)F)cc2[nH]1` [Example 75, N-(3-Chloro-2-methylphenyl)-2-(1-methoxy-2-methylpropan-2-yl)-6-({[2-(trifluoromethyl)phenyl]carbonyl}amino)-1H-benzimidazole-4-carboxamide hydrochloride], the figures for the IC50 on human mPGES-1 and with A549 cells were 31.7 nM and 19.7 nM, respectively.

Take `Cc1c(Cl)cccc1NC(=O)c1cc(NC(=O)c2ccccc2C(F)(F)F)cc2[nH]c(NCCN(C)C)nc12` [Example 147, N-(3-Chloro-2-methylphenyl)-2-{[2-(dimethylamino)ethyl]amino}-6-({[2-(trifluoromethyl)phenyl]carbonyl}amino)-1H-benzimidazole-4-carboxamide hydrochloride]: the results for the IC50 on human mPGES-1 and in the assay on A549 cells were 15.8 nM and 186 nM, respectively.

For `Cc1ccc(NC(=O)c2cc(NC(=O)c3cc(Cl)ccc3Cl)cc3[nH]c(C4CC4)nc23)cc1Cl` [Example 209, N-(3-Chloro-4-methylphenyl)-2-cyclopropyl-6-{[(2,5-dichlorophenyl)carbonyl]amino}-1H-benzimidazole-4-carboxamide hydrochloride], the IC50 on human mPGES-1 turned out to be 1 nM; in the assay on A549 cells, 10.3 nM.

Take `Cc1c(Cl)cccc1NC(=O)c1cc(NC(=O)c2ccccc2C(F)(F)F)cc2[nH]c(NCCOC(C)(C)C)nc12` [Example 176, 2-[(2-tert-Butoxyethyl)amino]-N-(3-chloro-2-methylphenyl)-6-({[2-(trifluoromethyl)phenyl]carbonyl}amino)-1H-benzimidazole-4-carboxamide hydrochloride]: the values for the IC50 on human mPGES-1 and in the assay on A549 cells were 0.3 nM and 138 nM, respectively.

With `COCc1nc2c(C(=O)Nc3cccc(Cl)c3C)cc(NC(=O)c3cc(C)ccc3C(F)(F)F)cc2[nH]1` [Example 109, N-(3-Chloro-2-methylphenyl)-2-(methoxymethyl)-6-({[5-methyl-2-(trifluoromethyl)phenyl]carbonyl}amino)-1H-benzimidazole-4-carboxamide hydrochloride], the results for the IC50 at human mPGES-1 and with A549 cells were 7.8 nM and 8.7 nM, respectively.
